Read-outs that look alike come from different tables or passages of the source.
Experiments:
parental HEK cells = test: HEK parental Agonist Counterscreen Assay (non-transfected cells); type: cell-based; settings: for Averaged Max % Response (±St. Dev.): activity relative to known control
Excerpt: The high control for the agonist counterscreen was Forskolin not acetylcholine.

GPR139 = target: T1, GPR139 (Homo sapiens, UniProt Q6DWJ6); test: GPR139 Agonist titration / agonist counterscreen assay (calcium detection, HEK-GPR139 cells); type: cell-based; design: expressed in transfected cells; host or cells: HEK Aequorin cells, Maxcyte transient transfection; settings: GPR139 Agonist Activity; for Averaged Max % Response (±St. Dev.): activity relative to known control; for EC50: read-out: EC50
T1 sequence (Q6DWJ6 1-353): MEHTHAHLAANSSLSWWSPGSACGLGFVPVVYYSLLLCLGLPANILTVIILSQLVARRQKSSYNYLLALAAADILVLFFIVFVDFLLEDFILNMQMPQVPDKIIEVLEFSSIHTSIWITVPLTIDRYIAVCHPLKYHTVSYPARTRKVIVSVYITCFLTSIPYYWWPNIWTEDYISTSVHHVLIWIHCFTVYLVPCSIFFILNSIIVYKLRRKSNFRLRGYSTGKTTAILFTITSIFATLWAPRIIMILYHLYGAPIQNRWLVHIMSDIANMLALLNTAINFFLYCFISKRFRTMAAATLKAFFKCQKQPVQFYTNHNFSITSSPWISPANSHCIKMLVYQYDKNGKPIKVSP
Method: GPR activity was assessed using a calcium detection assay. […] Negative control samples were treated with DMSO. […] Intracellular calcium was measured using Calcium 5.

[1] = Homo sapiens, HEK293, HEK Agonist Activity section of Table 4 (parental HEK counterscreen)
[2] = values printed in E-notation without unit
[3] = HEK Agonist Activity section of Table 4 (parental HEK counterscreen)
[4] = Homo sapiens, HEK293, HEK Agonist Activity, parental non-transfected HEK cells

Row | Lipophilic Efficiency (logD) (parental HEK cells; HEK Agonist Activity section) | Lipophilic Efficiency (logP) (parental HEK cells; HEK Agonist Activity section) | Averaged Max % Response (±St. Dev.) (GPR139) [%] | Lipophilic Efficiency (logD) (GPR139; based on logD) | Lipophilic Efficiency (logP) (GPR139; based on logP) | Hill Slope (GPR139; fitted dose-response curve) | Efficiency Ligand (GPR139; ligand efficiency) | EC50 (GPR139; [2]) [nM] | Efficiency Ligand (GPR139) | Hill Slope (GPR139) | Lipophilic Efficiency (logD) (GPR139) | Lipophilic Efficiency (logP) (GPR139) | EC50 (GPR139; HEK-GPR139 cells) [nM] | Compound | Averaged Max % Response (±St. Dev.) (parental HEK cells; HEK Agonist Activity section) [%] | EC50 (parental HEK cells; [1]) [nM] | EC50 (parental HEK cells; [3]) [nM] | other results
1 | 1.46 | 1.46 | 93.59 ± 4.95 | 3.81 | 3.81 | 0.82 | 0.37 | 62.9 | – | – | – | – | – | COc1cc(NC(=O)NCCc2ccc3c(c2)CCCN3C)cc(OC)c1 [SR-01000923249] | 25.04 ± 3.96 | > 14100 | – | –
2 | 2.56 | 2.56 | 112.97 ± 21.84 | 4.43 | 4.43 | 0.95 | 0.38 | 189 | – | – | – | – | – | Cc1ccc(CN2CCN(CC(=O)N3CC(C)CC(C)C3)C2=O)cc1 (centres unmarked) [SR-01000150389] | 0.25 ± 10.83 | – | > 14100 | –
3 | – | – | 89.43 ± 6.88 | 3.97 | 3.96 | 0.82 | 0.36 | 22 | – | – | – | – | – | O=C(NCC1Cc2cccc(-c3ccccn3)c2O1)c1ccc(-n2cccn2)cc1 (centres unmarked) [SR-01000183606] | – | – | – | Lipophilic Efficiency (logD) (parental HEK cells; HEK Agonist Activity): 1.16; Lipophilic Efficiency (logP) (parental HEK cells; HEK Agonist Activity): 1.16; Averaged Max % Response (±St. Dev.) (parental HEK cells; HEK Agonist Activity): −9.57 ± 3.95%; EC50 (parental HEK cells; HEK Agonist Activity, parental non-transfected HEK cells): > 14100 nM
4 | 1.92 | 1.92 | 124.78 ± 10.06 | 3.82 | 3.82 | 0.77 | 0.31 | 178 | – | – | – | – | – | Cc1cccnc1CNC(=O)CCC1(Cc2cccc3ccccc23)CCC(=O)N1 (centres unmarked) [SR-01000207758] | 2.94 ± 8.83 | – | > 14100 | –
5 | 3.19 | 3.19 | 90.23 ± 7.66 | – | – | – | – | – | 0.39 | 0.91 | 4.83 | 4.83 | 325 | Cc1cc(-c2nnc(NC(=O)CCc3ccccc3)o2)n(C)n1 [SR-01000920602] | −28.12 ± 1.91 | > 14100 | – | –
6 | 1.74 | 1.74 | 109.30 ± 27.76 | – | – | – | – | – | 0.42 | 0.93 | 3.32 | 3.32 | 454 | Cc1cccc(C(=O)NNC(=O)CCc2ccccc2)c1 [SR-01000513008] | −5.44 ± 7.74 | > 17100 | – | –
7 | 2.16 | 2.16 | 90.96 ± 29.33 | – | – | – | – | – | 0.41 | 2.51 | 3.22 | 3.22 | 1200 | Cc1cc(=O)n2nc(NCc3ccccc3Cl)nc2[nH]1 [SR-01000153886] | −3.87 ± 9.73 | > 14100 | – | –
8 | 3.56 | 3.55 | 96.78 ± 9.37 | – | – | – | – | – | 0.35 | 1.48 | 4.77 | 4.76 | 857 | O=C(CSCc1cccc2ccccc12)Nc1c[nH]c(=O)[nH]c1=O [SR-01000296110] | 3.41 ± 3.54 | – | > 14100 | –
9 | 1.70 | 1.70 | 93.85 ± 32.13 | – | – | – | – | – | 0.38 | 1.89 | 2.80 | 2.80 | 1100 | O=c1c2c([nH]c3nc(NCc4ccccc4Cl)nn13)CCC2 [SR-01000153956] | 21.15 ± 4.99 | > 14100 | – | –
10 | 1.29 | 1.29 | 105.59 ± 5.95 | 3.66 | 3.66 | 0.45 | 0.37 | 60.2 | – | – | – | – | – | O=C(CCc1nc2cccnc2n1Cc1cccs1)NCCc1cccs1 [SR-01000077903] | 1.27 ± 2.74 | > 14100 | – | –
11 | 1.72 | 1.72 | 114.56 ± 16.65 | 4.08 | 4.08 | 0.14 | 0.40 | 61.5 | – | – | – | – | – | Cc1ccc(NC(=O)Cn2ncc3c2-c2ccccc2OC3)cc1F [SR-01000135068] | −6.35 ± 1.52 | > 14100 | – | –
12 | 2.43 | 2.43 | 99.00 ± 11.26 | 4.39 | 4.39 | 0.48 | 0.39 | 171 | – | – | – | – | – | Cc1ccc(SCC(=O)NNC(=O)CCC(=O)c2cccs2)cc1 [SR-01000069391] | 12.32 ± 6.09 | – | > 15500 | –
13 | – | – | 136.02 ± 19.68 | 2.73 | 2.73 | – | 0.39 | – | – | – | – | – | – | O=C(CCc1nc2ccccc2n1-c1ccccc1)NCCc1ccccc1 [SR-01000535824] | – | – | – | Lipophilic Efficiency (logD) (parental HEK cells; HEK Agonist Activity): −0.133; Lipophilic Efficiency (logP) (parental HEK cells; HEK Agonist Activity): −0.133; Averaged Max % Response (±St. Dev.) (parental HEK cells; HEK Agonist Activity): 34.71 ± 16.19%; EC50 (parental HEK cells; [4]): > 12100 nM
14 | 3.83 | 3.83 | 95.18 ± 9.10 | 6.21 | 6.20 | 1.06 | 0.39 | 60.5 | – | – | – | – | – | O=C(Cc1cccc2ccccc12)NCC(=O)NNC(=O)c1ccco1 [SR-01000069451] | 25.95 ± 1.00 | > 14400 | – | –
15 | 2.20 | 2.20 | 99.20 ± 4.08 | 4.23 | 4.23 | 0.78 | 0.48 | 132 | – | – | – | – | – | Cc1ccc(SCC(=O)NNC(=O)c2cccs2)cc1 [SR-01000286062] | 8.31 ± 5.73 | – | > 14100 | –
16 | – | – | 100.43 ± 4.95 | 4.82 | 4.81 | 0.91 | 0.38 | 6.7 | – | – | – | – | – | Cc1onc(-c2ccccc2Cl)c1C(=O)NNC(=O)CSc1ccccc1[N+](=O)[O-] [SR-01000633083] | – | – | – | Lipophilic Efficiency (logD) (parental HEK cells; HEK Agonist Activity): 1.49; Lipophilic Efficiency (logP) (parental HEK cells; HEK Agonist Activity): 1.48; Averaged Max % Response (±St. Dev.) (parental HEK cells; HEK Agonist Activity): 21.09 ± 6.01%; EC50 (parental HEK cells; [4]): > 14100 nM

— patent US20250099420A1, “SMALL MOLECULE MODULATORS OF GPR139 COMPLEX” (University of Florida Research Foundation, Incorporated, priority 2022, published 2025)
